EC50, EC90 and CC50 data for two compounds are collected here from patent US20250288632A1, “Viral Entry Inhibitors Derived From Botanicals” (priority 2022, published 2025).

One series deals with SARS-CoV2 (Caco2). The series is described as follows: microbe, parasite or virus in culture. To be noted: Severe acute respiratory syndrome coronavirus 2, Caco-2, 72 h.
Another series concerns SARS-CoV2 (Vero). Description: microbe, parasite or virus in culture. The series is classed as cell-based, SARS-CoV-2. The following applies: Severe acute respiratory syndrome coronavirus 2, Vero, 48 h.
For the next series, the system named is SARS-CoV2 (Calu3). The series is described as follows: microbe, parasite or virus in culture. The following applies: Severe acute respiratory syndrome coronavirus 2, Calu-3, 72 h. It is filed as cell-based, SARS-CoV-2.
Series [1] in a line: Cytotoxicity assay measuring cell proliferation in PBM cells. The series is classed as cell-based. To be noted: remdesivir. As for the experimental part:
Numbers in parentheses indicate percent inhibition at the highest concentration tested. Cytotoxicity assays measuring the cell proliferation in PBM and Vero cells were performed in parallel to the antiviral assays.

Series [2] concerns wild type SARS-CoV-2 pseudovirion. The series is described as follows: microbe, parasite or virus in culture. It is filed as cell-based. To be noted: Severe acute respiratory syndrome coronavirus 2, read-out: EC50 % Inhibition (μg/mL).

In general, EC90 refers to the point of the concentration-response curve where the effect stands at 90%. The term CC50 denotes the concentration giving 50% cytotoxicity.

The structures appear in SMILES notation. ≈ marks a conversion by molar mass, not a printed value.

With `CCC(CC)COC(=O)[C@H](C)N[P@](=O)(OC[C@H]1O[C@@](C#N)(c2ccc3c(N)ncnn23)[C@H](O)[C@@H]1O)Oc1ccccc1` [Remdesivir], the EC50 in the series on SARS-CoV2 (Caco2) (read-out: Anti-SARS-CoV2 (Caco2) EC50) is 100 nM; in the series with SARS-CoV2 (Vero) (read-out: Anti-SARS-CoV2 (Vero) EC50), 600 nM; with SARS-CoV2 (Calu3) (read-out: Anti-SARS-CoV2 (Calu3) EC50), 2 nM. Also, the EC90 in the series on SARS-CoV2 (Caco2) (read-out: Anti-SARS-CoV2 (Caco2) EC90) was 400 nM; in the series on SARS-CoV2 (Vero) (read-out: Anti-SARS-CoV2 (Vero) EC90) it was 1600 nM; in the series on SARS-CoV2 (Calu3) (read-out: Anti-SARS-CoV2 (Calu3) EC90) it was 20 nM. This compound returned a CC50 in series [1] of 1200 nM.

On to `CCN(CCO)CCCC(C)Nc1ccnc2cc(Cl)ccc12` (centres unmarked) [Hydroxy cholorquine], for which the EC50 in series [2] turned out to be 1.14 µg/mL (≈ 3.39 µM).
